# Measurements reported in patent US6559133B2, “Use of flavone 8-acetic acid in vascular and cardiovascular interventions and acute coronary syndromes” (priority 2000, dated 2003).
# Legend:
# [1] = tested on: deeply injured porcine carotid artery; experiment: Platelet and fibrin(ogen) deposition and mural thrombus after deep arterial injury by balloon angioplasty; format: in vivo, pig
# Protocol: (§1) Twenty normal pigs of Babcock 4-way cross stock (a mixture of Landrace, Yorkshire, Hampshire, and Durock breeds) approximately 4 months old with a mean weight of 40±1 kg (approximately 1 m^2 body surface area) (P. L. Altman & D. S. Dittmer, “Metabolism” in Biological Handbooks (Federation of American Societies for Experimental Biology, Bethesda, Md., 1968), pp. 346-348), were obtained from local farmers. […] Loading dose and maintenance infusion were calculated based on preliminary pharmacokinetic experiments in pigs.
# The model of deep arterial injury in the porcine carotid artery has been described in detail previously (P. M. Steele et al., “Balloon Angioplasty: Natural History of the Pathophysiologic Response to Injury in a Pig Model,” Cir. Res. 57: 105-112 (1985); M. Heras et al., “Hirudin, Heparin, and Placebo During Deep Arterial Injury in the Pig. The in Vivo Role of Thrombin in Platelet-Mediated Thrombosis,” Circulation 82: 1476-1484 (1990); J. Y. T. Lam et al., “Is Vasospasm Related to Platelet Deposition? Relationship in a Porcine Preparation of Arterial Injury in Vivo,” Circulation 75: 243-248 (1987)). Autologous platelets were labeled with […] of ^111Indium-tropolone and reinjected together with […] of ^125Iodine-labeled porcine fibrinogen on the day prior to the procedure M. Heras et al., “Hirudin, Heparin, and Placebo During Deep Arterial Injury in the Pig. The in Vivo Role of Thrombin in Platelet-Mediated Thrombosis,” Circulation 82: 1476-1484 (1990); J. Y. T. Lam et al., “Is Vasospasm Related to Platelet Deposition? Relationship in a Porcine Preparation of Arterial Injury in Vivo,” Circulation 75: 243-248 (1987); J. Mruk et al., “Does Anti-Thrombotic Therapy Influence Residual Thrombus After Thrombolysis of Platelet-Rich Thrombus?,” Circulation 93: 792-799 (1996)). On the day of surgery, the pigs were sedated with 1 g intramuscular ketamine (Ketaset, Bristol Laboratories, Syracuse, N.Y.), intubated and mechanically ventilated with room air (Harvard respirator, Harvard Apparatus, South Natick, Mass.). Anesthesia was maintained with a continuous infusion of etomidate (Abbott Laboratories, North Chicago, Ill.) 40 mg/l, fentanyl (Elkins-Sinn, Inc., Cherry Hill, N.J.) 10 mg/l, and ketamine 1,000 mg/l, at about 5 ml/minute. The ECG and intra-arterial pressure were continuously monitored throughout the procedure.
# The left femoral vein and artery and the right femoral vein were dissected. A 9 F sheath was placed in the left femoral artery, and 14 gauge angiocaths were inserted in the left and right femoral veins. […] All the lines for blood sampling were continuously flushed with 0.9% saline. […]
# [2] = tested on: porcine common carotid arteries; experiment: Vasoconstriction immediately distal to the dilatation site, from carotid angiograms; format: in vivo, pig; conditions: mean±SEM; p<0.001 vs placebo
# Protocol: An 8 mm×3 cm polyethylene angioplasty catheter (Blue Max, Medi-tech, Watertown, Mass.) was advanced under fluoroscopic guidance to the left and then to the right common carotid arteries for arterial dilatation. Angioplasty was performed 30 minutes after starting treatment, between the first and third cervical vertebrae, using a standardized procedure (5 inflations of 30 seconds duration at 7 atmospheres, with 60 seconds between inflations). Carotid angiography was performed by injecting 6 ml of ionic contrast material (Renografin 76, Squibb, Princeton, N.J.) just prior to carotid dilatation, using a catheter (8 F) with a metal ring of known dimension (Cordis Corporation, Miami, Fla.). Spot films were also taken during balloon dilatation. […]
# The severity of localized vasoconstriction was determined immediately distal to the dilatation site from angiograms of the common carotid arteries obtained before and after the dilatation procedure. Computer-assisted planimetry was used to measure the mean maximal narrowing in lumen diameter before and after the procedure, expressed as a percentage of the respective arterial dimension before dilatation (J. Y. T. Lam et al., “Is Vasospasm Related to Platelet Deposition? Relationship in a Porcine Preparation of Arterial Injury in Vivo,” Circulation 75: 243-248 (1987)).
# [3] = FAA pharmacokinetics and plasma levels in pigs (HPLC); format: in vivo, pig
# Protocol: as §1
# (§2) All blood samples were collected with the 2-syringe technique (0.13 M trisodium citrate as anticoagulant; anticoagulant:blood=1:10). […] Platelet count, hematocrit, aPTT, and fibrinogen were determined using standard laboratory methods (Mayo Clinic, Clinical Laboratories). […] Assays were performed as a single batch. The method of determination of FAA in plasma was that of L. Malspeis (personal communication). Briefly, plasma (0.25-0.50 ml) was diluted to 1 ml with 0.5 ml of 0.5 M sodium acetate (pH 3.0) and normal saline. After addition of diethyl ether (4 ml) tubes were shaken on a mechanical shaker for 15 minutes. Following low speed centrifugation, the ether phase was evaporated to dryness under a stream of nitrogen and the residue dissolved in mobile solvent prior to HPLC analysis. Samples were analyzed by reversed-phase HPLC on an IBM C18 (10 micron) column with a mobile solvent of methanol/water mixture. Detection was by UV absorbance at 254 nm. Standard curves were prepared by adding known amounts of FAA to blood blank plasma and analyzing as described above.
# The intravenous bolus and continuous infusion doses to maintain a plasma concentration of 500 μg/ml calculated from these values, were 5.5 gm/m^2 and 140 mg/min/m^2, respectively.
# [4] = Laboratory tests: aPTT and ear bleeding time; format: in vivo, pig
# Protocol: The left femoral vein and artery and the right femoral vein were dissected. A 9 F sheath was placed in the left femoral artery, and 14 gauge angiocaths were inserted in the left and right femoral veins. […] All the lines for blood sampling were continuously flushed with 0.9% saline.
# as §2
# [5] = tested on: human platelet-rich plasma; conditions: cited from earlier work
# [6] = tested on: solid tumors in the mouse; conditions: mice; cited from earlier work
compound,measurement,setting,value
"O=C(O)Cc1cccc2c(=O)cc(-c3ccccc3)oc12 [FAA, flavone-8-acetic acid]",Fibrin(ogen) deposition,"[1]; deeply injured segments, mean±SEM, p=0.08 vs placebo",40±8 ×10^12 molecules/cm^2
same,"Incidence of very small mural thrombi, treated pigs","[1]; per animal, p=0.005, large thrombi in all placebo pigs",40%
same,"Incidence of very small thrombi, deeply injured segments","[1]; per deeply injured segment, placebo 85% large thrombi",30%
same,Platelet deposition in deeply injured segments,"[1]; pigs, FAA bolus 5.5 g/m^2 then infusion 0.14 g/m^2/minute, mean±SEM, p=0.001 vs placebo",13±3 ×10^6/cm^2
same,Vasoconstriction immediately distal to the area of dilatation,[2],15±3%
same,concentration at 30 min,"[3]; Babcock 4-way cross (Landrace, Yorkshire, Hampshire, Durock), pig, plasma, intravenous, 30 minutes after starting bolus 5.5 g/m^2 plus infusion 0.14 g/m^2/minute",515 ± 23 µg/mL
same,Plasma level of FAA at the end of the procedure,[3]; bolus 5.5 g/m^2 plus infusion 0.14 g/m^2/minute,575 ± 36 µg/mL
same,half-life,"[3]; pig, plasma, two animals, intravenous bolus 1 gm/m^2, one compartment open model",27.9 min
same,Plasma clearance,"[3]; two animals, intravenous bolus 1 gm/m^2, one compartment open model",279 ml/min/m^2
same,Bleeding time after FAA in 4 of the animals,"[4]; 4 of 5 animals, 210 seconds = 2 standard deviations above the mean laboratory value",more than 210 seconds
same,Bleeding time after FAA,"[4]; 5 animals, 30 minutes after starting infusion, before FAA 157±29 seconds",522 ± 123 s
same,Ristocetin-induced platelet aggregation (vWF-GP Ibα-dependent),[5]; FAA administered to patients with cancer,inhibited
same,"Aggregation induced by ADP, collagen, arachidonic acid and adrenalin","[5]; ex vivo and in vitro, human platelet-rich plasma",not inhibited
same,Plasma ristocetin cofactor activity,[5]; human,unchanged
same,Implantation of solid tumors,[6],inhibits implantation of solid tumors in mice
